Values after ≈ are worked out from the molar mass of the structure shown. Like-named read-outs stand apart in the source and are kept apart here.
Key:
[1] = cited from earlier work; for water solubility: atazenavir: as a free base
[2] = In vitro dissolution rate of the AZI (2015 Chinese pharmacopoeia, deionized water, 37° C., UV 482 nm); type: physicochemical; settings: at 120 min, 100 rpm
Method: The original AZI powder was dissolved in anhydrous ethanol to form a solution with a concentration of 2 mg/ml under ultrasonic dispersion at room temperature. Subsequently, hydrochloric acid (0.1 M) was added into the AZI solution to form a series of AZI solution with different concentrations (16, 32, 48, 64, 80, 96 μg/ml). Then, 5 ml of each AZI sample and 5 ml of sulfuric acid (73.5%) were added into a test tube and mixed, after that the resultant mixture was kept for reaction for 30 min at the room temperature. Finally, UV absorption was measured at a wavelength of 482 nm to determine the concentration of the AZI solution, and a standard AZI curve can be plotted.
The dissolution rate was determined according to the method of 2015 Chinese pharmacopoeia (XC II). Firstly, 2 mg of AZI was placed in 100 ml of deionized water, and stirred at 100 rpm and 37° C. […]
Then, 2 ml sulfuric acid (73.5%) and 2 ml of the resultant filtrate were added to a test tube to form a mixture, and the mixture was kept for 30 min. Finally, UV absorption was measured at a wavelength of 482 nm to determine the AZI concentration. The dissolution rate of AZI was calculated using Eq. 2: Dissolution rate (%)=(Cn×V2+C1×V1+C2×V1+ . . . +Cn-1×V1)×100%/m (2) […]

[3] = free base; preclinical animal models; cited from earlier work

SMILES: CCOc1cc(CC(=O)N[C@@H](CC(C)C)c2ccccc2N2CCCCC2)ccc1C(=O)O [repaglinide]
- water solubility [1]: 37 µg/mL (≈ 81.8 µM)

SMILES: CC[C@H]1OC(=O)[C@H](C)[C@@H](O[C@H]2C[C@@](C)(OC)[C@@H](O)[C@H](C)O2)[C@H](C)[C@@H](O[C@@H]2O[C@H](C)C[C@H](N(C)C)[C@H]2O)[C@](C)(O)C[C@@H](C)CN(C)[C@H](C)[C@@H](O)[C@]1(C)O [original AZI, Azithromycin]
- dissolution rate of AZI [2]: 1.31%

SMILES: CC(C(=O)O)c1ccc2c(c1)[nH]c1ccc(Cl)cc12 (stereo not drawn) [carprofen]
- solubility in water [1]: 3.79 µg/mL (≈ 13.8 µM)
- solubility in water ([1]; value in brackets): 3.79 µg/mL (≈ 13.8 µM)

SMILES: COC(=O)N[C@H](C(=O)N[C@@H](Cc1ccccc1)[C@@H](O)CN(Cc1ccc(-c2ccccn2)cc1)NC(=O)[C@@H](NC(=O)OC)C(C)(C)C)C(C)(C)C [atazenavir]
- water solubility [1]: < 1 µg/mL
- oral bioavailability [3]: poor oral bioavailability

Source: patent US11723867B2, “Method for preparing pharmaceutical composition and pharmaceutical composition” (UPM-Kymmene Corporation, priority 2019, dated 2023)
